Laboratory results taken from patent US12312621B2, “Reprogramming urokinase into an antibody-recruiting anticancer agent” (YALE UNIVERSITY, priority 2011, dated 2025).

Assay: Storage stability of stock solution in water
Type: physicochemical
Protocol: Synthesis of guanidinium 1 Into a flask were added crude peptide 1v (0.120 mmol, 1 equiv), and a mixture of TFA, TiPS, and water (38:1:1, 2 mL, 0.06 M, producing a homogeneous solution). The mixture was stirred in the dark (1.5 h) and diluted with toluene (3 mL). Volatiles were removed under reduced pressure (2×toluene azeotrope). The crude mixture was dissolved in water (2 mL) and washed with EtOAc (2×2 mL). The aqueous phase was purified by semi-preparative RP-HPLC (C18 column, water+0.1% TFA with 15-35% MeCN over 30 min, product isomers elute at 14.5 and 15.4 min) to yield pure guanidinium 1 (58 mg, 0.049 mmol, 41% yield) as a mixture (approximately 1:1) of regioisomers at fluorescein and as a yellow solid. The regioisomeric ratio was measured by ^1H NMR. ^1H NMR signals were assigned by ^1H-^1H COSY.
Synthesis of guanidinium 2 Into a flask were added crude peptide 2g (0.150 mmol, 1 equiv), and a mixture of TFA, TiPS, and water (38:1:1, 2 mL, 0.07 M). The mixture was stirred (1.5 h) and diluted with toluene (3 mL). Volatiles were removed under reduced pressure (2×toluene azeotrope). The crude mixture was dissolved in water (2 mL) and washed with EtOAc (2×2 mL). […]

In the case of N=C(N)NCCC[C@H](NC(=O)CNC(=O)[C@@H](N)CCC(=O)NCCCOCCOCCOCCCNc1ccc([N+](=O)[O-])cc1[N+](=O)[O-])C(=O)CCl [compound 2], the “stability of stock solution” value is reported as “stable for at least several months”.
